Experimental data as given in patent US20230212120A1, “SMALL MOLECULE INHIBITORS OF GRK5 AND GRK5 SUBFAMILY MEMBERS AND USES THEREOF” (The Regents of the University of Michigan, priority 2020, published 2023).
Several values for one entry are separate records, joined by “and”; a condition that tells them apart may be missing. Equal entries are not always repeated. Entries after “also recorded” stand apart in the source; their conditions may differ. Where two headings read alike, the source gives them in different places.

Assays:
PKA = PKA (Homo sapiens, UniProt P17612); test: PKA inhibition assay (ADP-Glo); assay type: biochemical
Protocol: The PKA inhibition assays were performed with the ADP-Glo system (Promega Corporation) according to the manufactory's instruction. […] After the initial reaction, ADP-Glo reagent was added to the reaction and allowed to incubate for an additional 40 min. Lastly, the kinase detection reagent was added and allowed to incubate for 30 min, and the luminescence was measured with a FlexStation 3 Multi-mode Microplate Reader (Molecular Devices). All data was analyzed in the same way as GRK inhibition assay. Experiments were performed three times in duplicate.
Standard control compounds are run during each assay to assess consistency across time, experimenters, and subtle changes in assay conditions that are sometimes required to keep some of the compounds soluble and disperse (such as through addition of DDM or 3% DMSO). Paroxetine were used as controls for GRK2 and PKA, and CCG215022 for GRK5.

GRK5 (Cys474) = GRK5 (Cys474) (Homo sapiens, UniProt P34947); test: Intact protein MS, covalent labelling of GRK5; assay type: binding
Chain of GRK5 (Cys474) (P34947 whole entry): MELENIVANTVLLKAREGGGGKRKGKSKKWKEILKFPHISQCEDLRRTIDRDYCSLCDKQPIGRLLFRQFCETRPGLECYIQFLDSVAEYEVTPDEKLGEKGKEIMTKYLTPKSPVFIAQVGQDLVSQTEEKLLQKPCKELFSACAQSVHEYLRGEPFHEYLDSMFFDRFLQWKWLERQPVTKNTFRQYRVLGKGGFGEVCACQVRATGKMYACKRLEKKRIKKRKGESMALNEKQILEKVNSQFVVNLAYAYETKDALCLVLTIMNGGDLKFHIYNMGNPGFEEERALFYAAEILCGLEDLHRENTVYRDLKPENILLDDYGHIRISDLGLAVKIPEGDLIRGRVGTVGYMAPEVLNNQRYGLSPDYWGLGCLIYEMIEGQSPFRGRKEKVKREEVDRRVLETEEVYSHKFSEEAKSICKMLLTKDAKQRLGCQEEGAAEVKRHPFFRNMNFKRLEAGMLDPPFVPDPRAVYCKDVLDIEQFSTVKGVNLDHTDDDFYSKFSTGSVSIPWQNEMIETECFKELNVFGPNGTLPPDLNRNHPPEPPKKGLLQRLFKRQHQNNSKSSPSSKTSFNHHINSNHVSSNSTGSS

bovine GRK2 = molecular target: T1, bovine GRK2 (Bos taurus, UniProt P21146); test: radiometric GRK2 inhibition assay (tubulin phosphorylation)
T1 sequence (P21146 1-689): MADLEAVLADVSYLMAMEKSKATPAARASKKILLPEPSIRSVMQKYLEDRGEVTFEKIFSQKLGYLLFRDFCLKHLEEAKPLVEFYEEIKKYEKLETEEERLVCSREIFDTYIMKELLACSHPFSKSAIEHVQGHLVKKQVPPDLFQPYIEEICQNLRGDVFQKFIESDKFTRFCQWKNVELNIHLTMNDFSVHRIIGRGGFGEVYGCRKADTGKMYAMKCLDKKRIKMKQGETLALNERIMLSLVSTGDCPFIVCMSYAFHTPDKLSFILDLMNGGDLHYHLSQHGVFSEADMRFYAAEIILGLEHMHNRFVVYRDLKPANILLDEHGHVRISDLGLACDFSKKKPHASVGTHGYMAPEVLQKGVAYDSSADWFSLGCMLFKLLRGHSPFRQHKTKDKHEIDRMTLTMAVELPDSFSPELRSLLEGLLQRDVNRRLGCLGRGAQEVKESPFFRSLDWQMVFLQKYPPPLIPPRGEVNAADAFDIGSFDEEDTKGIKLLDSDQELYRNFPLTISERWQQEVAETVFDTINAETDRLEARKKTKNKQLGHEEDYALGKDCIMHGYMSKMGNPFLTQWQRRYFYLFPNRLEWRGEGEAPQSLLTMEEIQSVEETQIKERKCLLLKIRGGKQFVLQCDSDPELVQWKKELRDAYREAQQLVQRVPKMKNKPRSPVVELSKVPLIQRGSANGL

GRK5 [1] = molecular target: T2, GRK5 (Homo sapiens, UniProt P34947); test: radiometric GRK5 inhibition assay (tubulin phosphorylation); conditions: for IC50: read-out: GRK5 IC50
Target sequence in this assay (P34947 whole entry): as the sequence (P34947 whole entry) above

GRK5 [2] = molecular target: T2, GRK5; test: Kinome panel, GRK5; assay type: biochemical; conditions: tested at 1 μM
Target sequence in this assay (P34947 whole entry, species assumed): as the sequence (P34947 whole entry) above

GRK6 = GRK6 (Homo sapiens, UniProt P43250); test: Kinome panel, GRK6; assay type: biochemical; conditions: tested at 1 μM
Chain of GRK6 (P43250 whole entry, species assumed): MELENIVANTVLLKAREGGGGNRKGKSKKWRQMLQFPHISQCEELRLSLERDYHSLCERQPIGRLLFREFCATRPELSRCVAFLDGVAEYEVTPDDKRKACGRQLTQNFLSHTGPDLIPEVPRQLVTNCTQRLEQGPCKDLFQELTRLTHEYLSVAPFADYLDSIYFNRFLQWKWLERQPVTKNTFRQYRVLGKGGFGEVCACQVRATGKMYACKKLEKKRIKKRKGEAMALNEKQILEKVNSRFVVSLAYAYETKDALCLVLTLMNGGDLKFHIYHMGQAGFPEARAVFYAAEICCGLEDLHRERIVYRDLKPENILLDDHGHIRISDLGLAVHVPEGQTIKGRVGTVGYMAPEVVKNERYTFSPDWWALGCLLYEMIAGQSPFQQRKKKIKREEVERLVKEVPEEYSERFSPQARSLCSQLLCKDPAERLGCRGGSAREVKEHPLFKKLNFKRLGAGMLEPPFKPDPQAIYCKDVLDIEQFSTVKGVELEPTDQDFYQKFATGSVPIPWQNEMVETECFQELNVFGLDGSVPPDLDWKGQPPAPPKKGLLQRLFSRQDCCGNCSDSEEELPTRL

KIT = KIT (Homo sapiens, UniProt P10721); test: Kinome panel, KIT; assay type: biochemical; conditions: tested at 1 μM
Chain of KIT (P10721 26-976, species assumed): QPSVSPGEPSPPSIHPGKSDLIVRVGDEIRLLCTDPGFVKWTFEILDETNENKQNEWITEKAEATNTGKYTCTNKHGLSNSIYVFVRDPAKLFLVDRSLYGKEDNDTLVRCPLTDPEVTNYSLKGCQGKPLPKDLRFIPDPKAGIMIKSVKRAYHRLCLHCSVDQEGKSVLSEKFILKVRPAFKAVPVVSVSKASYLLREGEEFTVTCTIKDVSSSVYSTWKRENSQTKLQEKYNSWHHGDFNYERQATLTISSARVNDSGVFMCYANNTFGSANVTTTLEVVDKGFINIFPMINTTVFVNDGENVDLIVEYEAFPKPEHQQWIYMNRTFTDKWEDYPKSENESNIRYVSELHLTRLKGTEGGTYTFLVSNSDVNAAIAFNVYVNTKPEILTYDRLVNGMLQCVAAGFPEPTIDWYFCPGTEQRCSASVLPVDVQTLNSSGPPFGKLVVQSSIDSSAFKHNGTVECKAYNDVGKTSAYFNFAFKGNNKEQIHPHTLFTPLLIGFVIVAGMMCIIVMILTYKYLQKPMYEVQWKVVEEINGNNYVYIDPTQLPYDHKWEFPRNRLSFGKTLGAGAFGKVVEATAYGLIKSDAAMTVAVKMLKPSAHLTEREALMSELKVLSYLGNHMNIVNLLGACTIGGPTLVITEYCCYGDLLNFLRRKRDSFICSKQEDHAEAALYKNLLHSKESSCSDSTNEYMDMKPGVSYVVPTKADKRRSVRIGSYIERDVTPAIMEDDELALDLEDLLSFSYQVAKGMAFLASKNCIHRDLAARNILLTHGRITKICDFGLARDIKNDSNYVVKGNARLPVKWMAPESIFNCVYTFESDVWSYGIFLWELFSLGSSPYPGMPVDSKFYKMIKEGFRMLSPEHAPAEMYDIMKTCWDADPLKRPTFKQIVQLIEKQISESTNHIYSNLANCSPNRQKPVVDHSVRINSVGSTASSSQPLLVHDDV

FGFR1/2 = test: Kinome panel, FGFR1/2; assay type: biochemical; conditions: tested at 1 μM
PDGFR = test: Kinome panel, PDGFR; assay type: biochemical; conditions: tested at 1 μM
EGFR = EGFR (Homo sapiens, UniProt P00533); test: Kinome panel, EGFR; assay type: biochemical; conditions: tested at 1 μM
Chain of EGFR (P00533 25-1210, species assumed): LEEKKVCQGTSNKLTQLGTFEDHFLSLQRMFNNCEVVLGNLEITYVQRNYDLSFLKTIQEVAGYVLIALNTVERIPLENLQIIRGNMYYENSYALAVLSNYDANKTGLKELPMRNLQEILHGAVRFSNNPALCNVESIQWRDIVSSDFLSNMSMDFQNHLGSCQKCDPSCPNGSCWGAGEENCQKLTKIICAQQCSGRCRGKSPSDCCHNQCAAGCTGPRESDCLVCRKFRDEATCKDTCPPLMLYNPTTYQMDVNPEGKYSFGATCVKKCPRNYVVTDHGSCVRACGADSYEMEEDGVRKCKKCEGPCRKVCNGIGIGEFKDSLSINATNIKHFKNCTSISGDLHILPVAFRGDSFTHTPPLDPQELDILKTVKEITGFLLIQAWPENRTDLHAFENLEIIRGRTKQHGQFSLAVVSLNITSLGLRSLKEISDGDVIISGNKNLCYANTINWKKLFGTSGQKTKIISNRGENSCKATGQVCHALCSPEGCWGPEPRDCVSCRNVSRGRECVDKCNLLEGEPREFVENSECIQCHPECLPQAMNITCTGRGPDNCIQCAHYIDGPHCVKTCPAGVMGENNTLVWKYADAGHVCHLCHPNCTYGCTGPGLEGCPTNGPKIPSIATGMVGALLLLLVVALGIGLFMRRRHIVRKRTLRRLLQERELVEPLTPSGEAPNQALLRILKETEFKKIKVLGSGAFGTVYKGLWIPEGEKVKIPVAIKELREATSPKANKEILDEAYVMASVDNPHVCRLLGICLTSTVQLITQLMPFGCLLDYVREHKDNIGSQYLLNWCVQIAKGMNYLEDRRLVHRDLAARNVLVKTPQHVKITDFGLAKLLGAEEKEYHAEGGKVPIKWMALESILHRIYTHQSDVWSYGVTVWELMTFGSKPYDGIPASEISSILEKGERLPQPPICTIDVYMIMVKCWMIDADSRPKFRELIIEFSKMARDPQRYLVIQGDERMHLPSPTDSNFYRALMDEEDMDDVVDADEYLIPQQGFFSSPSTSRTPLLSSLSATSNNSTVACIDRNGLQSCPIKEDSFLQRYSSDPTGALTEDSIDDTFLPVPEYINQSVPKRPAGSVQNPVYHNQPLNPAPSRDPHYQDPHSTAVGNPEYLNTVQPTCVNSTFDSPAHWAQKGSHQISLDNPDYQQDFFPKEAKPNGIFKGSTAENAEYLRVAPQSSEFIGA

kinome = test: Kinome-wide selectivity panel; assay type: biochemical; conditions: tested at 10 nM, in relation to 100 nM and 1 μM panels
[3] = Thermodynamic solubility (Analiza Inc.); assay type: physicochemical; conditions: Water
Source text: Experimental data collected by Analiza Inc. Experimental values represent an average of n=1 experiments.

[4] = Metabolic stability in human liver microsomes; assay type: in vitro ADME; conditions: 4-fluoro pendant added to phenyl ring
[5] = read-out: GRK2 IC50, Table 2, μM ± SD
[6] = intact protein MS, 30 min incubation
[7] = intact protein MS, incubation time not stated
[8] = read-out: GRK2 IC50, Table 1, μM ± SD

In the case of `Cc1[nH]c(/C=C2\C(=O)Nc3ccc(C(=O)NCc4ccccc4)cc32)c(C)c1NC(=O)CCl` [Compound 9q, (Z)—N-benzyl-3-((4-(2-chloroacetamido)-3,5-dimethyl-1H-pyrrol-2-yl)methylene)-2-oxoindoline-5-carboxamide], the IC50 (PKA; Table 2, μM ± SD) is reported as over 250 µM, the “covalent labelling of GRK5” value (GRK5 (Cys474); intact MS, overnight / 8 hours) is reported as “partial labelling” and the IC50 (bovine GRK2; [5]) is reported as 13 ± 3 µM.

With `Cc1[nH]c(/C=C2\C(=O)Nc3ccc(C(=O)NC(C)(C)c4ccccc4)cc32)c(C)c1NC(=O)CCl` [Compound 9s, (Z)-3-((4-(2-chloroacetamido)-3,5-dimethyl-1H-pyrrol-2-yl)methylene)-2-oxo-N-(2-phenylpropan-2-yl)indoline-5-carboxamide] the IC50 (PKA; Table 2, μM ± SD) was over 250 µM, the “covalent labelling of GRK5” value (GRK5 (Cys474); intact MS, overnight / 8 hours) was “completes labelling of GRK5” and the GRK2/GRK5 (GRK5 [1]; Table 2, ratio of IC50 values) was 260.

In the case of `Cc1[nH]c(/C=C2\C(=O)Nc3ccc(C(=O)N[C@H](C)c4ccccc4)cc32)c(C)c1NC(=O)CBr` [Compound 9g, (R,Z)-3-((4-(2-bromoacetamido)-3,5-dimethyl-1H-pyrrol-2-yl)methylene)-2-oxo-N-(1-phenylethyl)indoline-5-carboxamide], the IC50 (PKA; Table 1, μM ± SD) is reported as over 250 µM, the “fraction of GRK5 labelled” value (GRK5 (Cys474); [6]) is reported as 50% and the “covalent labelling of GRK5” value (GRK5 (Cys474); [7]) is reported as “able to label GRK5 at Cys474; also recorded: able to form a covalent interaction”. It also gave an inhibition at 1 µM (GRK5 [2]) of 93%, an inhibition at 1 µM (GRK6) of 97% and an inhibition at 1 µM (KIT) of 84%. For the same molecule, the “inhibition of FGFR1/2” value (FGFR1/2) was 94-98%, the “inhibition of PDGFR” value (PDGFR) was 99% and the inhibition at 1 µM (EGFR) was 17%. The kinome-wide selectivity (kinome) was “far more selective across the kinome”, the “selectivity for GRK5 over GRK2” value (GRK5 [1]) was 1400 fold and the GRK2/GRK5 (GRK5 [1]; Table 1, ratio of IC50 values) was 1400. It also gave an IC50 (GRK5 [1]) of 0.0086 µM and an IC50 (bovine GRK2; [8]) of 12 ± 20 µM.

For `Cc1[nH]c(/C=C2\C(=O)Nc3ccc(C(=O)N[C@@H](c4ccccc4)C(C)C)cc32)c(C)c1NC(=O)CCl` [Compound 9r, (R,Z)-3-((4-(2-chloroacetamido)-3,5-dimethyl-1H-pyrrol-2-yl)methylene)-N-(2-methyl-1-phenylpropyl)-2-oxoindoline-5-carboxamide], the “covalent labelling of GRK5” value (GRK5 (Cys474); intact MS, overnight / 8 hours) was “partial labelling”, the GRK2/GRK5 (GRK5 [1]; Table 2, ratio of IC50 values) was 15 and the IC50 (bovine GRK2) was 190 ± 70 µM.

In the case of `C#CCNC(=O)c1c(C)[nH]c(/C=C2\C(=O)Nc3ccc(C(=O)N[C@H](C)c4ccccc4)cc32)c1C` [Compound 5c, (R,Z)-3-((3,5-dimethyl-4-(prop-2-yn-1-ylcarbamoyl)-1H-pyrrol-2-yl)methylene)-2-oxo-N-(1-phenylethyl)indoline-5-carboxamide], the inhibition at 1 µM (GRK6) is reported as 94%, the “inhibition of FGFR1/2” value (FGFR1/2) is reported as 92-98% and the “inhibition of PDGFR” value (PDGFR) is reported as 99-100%. For the same molecule, the inhibition at 1 µM (EGFR) was 17% and the IC50 (bovine GRK2; [8]) was 44 ± 40 µM.

With `Cc1[nH]c(/C=C2\C(=O)Nc3ccc(C(=O)N[C@H](C)c4ccc(F)cc4)cc32)c(C)c1NC(=O)CCl` [Compound 9j, (R,Z)-3-((4-(2-chloroacetamido)-3,5-dimethyl-1H-pyrrol-2-yl)methylene)-N-(1-(4-fluorophenyl)ethyl)-2-oxoindoline-5-carboxamide] the IC50 (PKA; Table 2, μM ± SD) was over 250 µM, the “pH After Assay” value ([3]; solubility assay) was 3 and the solubility thermodynamic ([3]; thermodynamic from solid, n=1) was 90.7 µM and 44.8 µg/mL. For the same molecule, the “covalent labelling of GRK5” value (GRK5 (Cys474); [6]) was “form a covalent interaction with Cys474; also recorded: fully labels GRK5”, the “covalent labelling of GRK5” value (GRK5 (Cys474); [7]) was “able to form a covalent interaction” and the “increase of stability in HLMs” value [4] was 1.4 fold. The IC50 (bovine GRK2; [5]) was 4.8 ± 3 µM.

In the case of `CC#CC(=O)Nc1c(C)[nH]c(/C=C2\C(=O)Nc3ccc(C(=O)N[C@H](C)c4ccccc4)cc32)c1C` [Compound 9a, (R,Z)-3-((4-(but-2-ynamido)-3,5-dimethyl-1H-pyrrol-2-yl)methylene)-2-oxo-N-(1-phenylethyl)indoline-5-carboxamide], the “covalent labelling of GRK5” value (GRK5 (Cys474); [7]) is reported as “did not show any covalent engagement”, the “potency / affinity against GRK5 in words” value (GRK5 [1]) is reported as “low μM potency” and the GRK2/GRK5 (GRK5 [1]; Table 1, ratio of IC50 values) is reported as 61. For the same molecule, the IC50 (GRK5 [1]; Table 1, μM ± SD) was 2.5 ± 0.8 µM and the IC50 (bovine GRK2; [8]) was 150 ± 30 µM.
